In PMC7026418, “The kinase polypharmacology landscape of clinical PARP inhibitors” (Scientific Reports, 2020):
Read-outs that look alike come from different tables or passages of the source. One block for each molecule: values may come before it.

Assays:
Experiment in all cases: biochemical
Design in all cases: DiscoveRx KINOMEscan active site-directed competition binding; percent of control kinase bound to immobilised ligand
TGFBR1 = target: T1, TGFBR1 (Homo sapiens, UniProt P36897)
T1 sequence (P36897 1-503): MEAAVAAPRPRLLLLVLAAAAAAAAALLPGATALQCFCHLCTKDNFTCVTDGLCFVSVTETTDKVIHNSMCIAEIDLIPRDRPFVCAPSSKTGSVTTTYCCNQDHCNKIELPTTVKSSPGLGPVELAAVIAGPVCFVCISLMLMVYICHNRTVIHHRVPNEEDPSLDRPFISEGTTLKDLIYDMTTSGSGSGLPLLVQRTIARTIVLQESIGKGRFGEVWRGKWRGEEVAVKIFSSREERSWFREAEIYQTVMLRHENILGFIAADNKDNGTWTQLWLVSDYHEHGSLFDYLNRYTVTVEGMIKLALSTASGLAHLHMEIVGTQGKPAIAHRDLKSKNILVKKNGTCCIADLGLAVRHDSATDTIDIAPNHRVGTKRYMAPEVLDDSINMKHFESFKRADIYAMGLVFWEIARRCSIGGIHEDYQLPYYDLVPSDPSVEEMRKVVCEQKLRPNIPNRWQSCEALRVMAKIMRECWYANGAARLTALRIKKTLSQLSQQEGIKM

MAP3K3 = target: T2, MAP3K3 (Homo sapiens, UniProt Q99759)
T2 sequence (Q99759 1-626): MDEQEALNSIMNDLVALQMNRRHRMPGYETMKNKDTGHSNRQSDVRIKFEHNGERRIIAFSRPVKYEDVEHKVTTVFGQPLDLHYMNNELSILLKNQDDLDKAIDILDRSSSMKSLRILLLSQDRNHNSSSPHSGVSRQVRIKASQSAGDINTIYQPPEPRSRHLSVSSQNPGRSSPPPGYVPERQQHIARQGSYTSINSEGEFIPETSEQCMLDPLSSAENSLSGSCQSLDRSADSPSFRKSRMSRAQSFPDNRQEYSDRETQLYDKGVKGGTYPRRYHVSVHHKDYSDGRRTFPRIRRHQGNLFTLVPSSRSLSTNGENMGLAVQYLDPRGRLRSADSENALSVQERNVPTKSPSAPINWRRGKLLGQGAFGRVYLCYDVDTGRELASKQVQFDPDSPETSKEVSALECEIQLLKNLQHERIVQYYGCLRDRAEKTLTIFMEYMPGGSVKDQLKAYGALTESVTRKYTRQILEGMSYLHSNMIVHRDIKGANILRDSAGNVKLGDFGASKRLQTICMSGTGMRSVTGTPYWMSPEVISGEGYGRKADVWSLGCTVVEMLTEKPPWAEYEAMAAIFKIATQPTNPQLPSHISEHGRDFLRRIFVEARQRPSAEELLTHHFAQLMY

TTK = target: T3, TTK (Homo sapiens, UniProt P33981)
T3 sequence (P33981 1-857): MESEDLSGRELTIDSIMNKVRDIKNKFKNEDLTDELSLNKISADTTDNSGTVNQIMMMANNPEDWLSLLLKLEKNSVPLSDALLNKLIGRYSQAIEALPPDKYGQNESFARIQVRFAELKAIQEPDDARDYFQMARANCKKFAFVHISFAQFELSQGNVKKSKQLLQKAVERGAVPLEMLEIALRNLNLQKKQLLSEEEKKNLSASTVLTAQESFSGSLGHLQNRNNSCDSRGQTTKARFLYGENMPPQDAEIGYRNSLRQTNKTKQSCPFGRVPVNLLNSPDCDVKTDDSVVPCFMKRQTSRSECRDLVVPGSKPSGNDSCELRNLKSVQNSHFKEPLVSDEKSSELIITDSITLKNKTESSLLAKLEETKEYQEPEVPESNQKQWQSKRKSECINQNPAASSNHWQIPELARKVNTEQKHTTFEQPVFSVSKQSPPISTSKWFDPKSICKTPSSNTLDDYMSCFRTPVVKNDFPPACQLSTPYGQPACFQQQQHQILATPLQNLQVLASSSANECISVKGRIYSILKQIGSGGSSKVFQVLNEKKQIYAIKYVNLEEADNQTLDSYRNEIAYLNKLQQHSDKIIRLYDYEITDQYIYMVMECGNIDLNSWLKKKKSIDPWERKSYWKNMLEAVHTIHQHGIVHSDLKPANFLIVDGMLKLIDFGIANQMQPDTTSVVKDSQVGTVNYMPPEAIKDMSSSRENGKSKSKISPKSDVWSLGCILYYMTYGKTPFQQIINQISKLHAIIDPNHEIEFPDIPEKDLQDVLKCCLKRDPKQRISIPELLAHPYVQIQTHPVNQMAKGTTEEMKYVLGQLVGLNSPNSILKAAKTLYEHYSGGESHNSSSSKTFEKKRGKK

CAMK1D = CAMK1D (Homo sapiens, UniProt Q8IU85)
[1] = target: T4, TYK2(JH1domain-catalytic) (Homo sapiens, UniProt P29597)
T4 construct: JH1domain-catalytic

SRMS = SRMS (Homo sapiens, UniProt Q9H3Y6)
[2] = read-out: Niraparib (MK-4827) / %Ctrl @ 10000nM
[3] = read-out: Olaparib / %Ctrl @ 10000nM
[4] = read-out: Rucaparib / %Ctrl @ 10000nM, binding competition, % of control
[5] = read-out: Talazoparib (BMN 673) / %Ctrl @ 10000nM

SRMS, sequence (Q9H3Y6 whole entry): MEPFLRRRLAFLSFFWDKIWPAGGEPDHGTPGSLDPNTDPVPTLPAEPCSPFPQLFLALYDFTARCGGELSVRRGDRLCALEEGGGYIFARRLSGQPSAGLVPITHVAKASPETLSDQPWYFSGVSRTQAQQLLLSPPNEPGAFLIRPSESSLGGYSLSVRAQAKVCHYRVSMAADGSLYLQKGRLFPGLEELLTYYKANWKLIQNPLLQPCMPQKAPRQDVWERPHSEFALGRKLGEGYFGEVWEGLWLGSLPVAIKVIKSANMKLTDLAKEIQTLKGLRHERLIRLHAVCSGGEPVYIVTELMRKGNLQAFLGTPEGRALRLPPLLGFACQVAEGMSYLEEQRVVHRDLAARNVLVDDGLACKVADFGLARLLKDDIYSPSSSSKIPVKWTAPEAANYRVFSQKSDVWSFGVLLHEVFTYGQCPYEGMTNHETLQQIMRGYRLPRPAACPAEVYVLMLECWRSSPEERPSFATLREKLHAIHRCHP
T4 sequence (P29597 whole entry): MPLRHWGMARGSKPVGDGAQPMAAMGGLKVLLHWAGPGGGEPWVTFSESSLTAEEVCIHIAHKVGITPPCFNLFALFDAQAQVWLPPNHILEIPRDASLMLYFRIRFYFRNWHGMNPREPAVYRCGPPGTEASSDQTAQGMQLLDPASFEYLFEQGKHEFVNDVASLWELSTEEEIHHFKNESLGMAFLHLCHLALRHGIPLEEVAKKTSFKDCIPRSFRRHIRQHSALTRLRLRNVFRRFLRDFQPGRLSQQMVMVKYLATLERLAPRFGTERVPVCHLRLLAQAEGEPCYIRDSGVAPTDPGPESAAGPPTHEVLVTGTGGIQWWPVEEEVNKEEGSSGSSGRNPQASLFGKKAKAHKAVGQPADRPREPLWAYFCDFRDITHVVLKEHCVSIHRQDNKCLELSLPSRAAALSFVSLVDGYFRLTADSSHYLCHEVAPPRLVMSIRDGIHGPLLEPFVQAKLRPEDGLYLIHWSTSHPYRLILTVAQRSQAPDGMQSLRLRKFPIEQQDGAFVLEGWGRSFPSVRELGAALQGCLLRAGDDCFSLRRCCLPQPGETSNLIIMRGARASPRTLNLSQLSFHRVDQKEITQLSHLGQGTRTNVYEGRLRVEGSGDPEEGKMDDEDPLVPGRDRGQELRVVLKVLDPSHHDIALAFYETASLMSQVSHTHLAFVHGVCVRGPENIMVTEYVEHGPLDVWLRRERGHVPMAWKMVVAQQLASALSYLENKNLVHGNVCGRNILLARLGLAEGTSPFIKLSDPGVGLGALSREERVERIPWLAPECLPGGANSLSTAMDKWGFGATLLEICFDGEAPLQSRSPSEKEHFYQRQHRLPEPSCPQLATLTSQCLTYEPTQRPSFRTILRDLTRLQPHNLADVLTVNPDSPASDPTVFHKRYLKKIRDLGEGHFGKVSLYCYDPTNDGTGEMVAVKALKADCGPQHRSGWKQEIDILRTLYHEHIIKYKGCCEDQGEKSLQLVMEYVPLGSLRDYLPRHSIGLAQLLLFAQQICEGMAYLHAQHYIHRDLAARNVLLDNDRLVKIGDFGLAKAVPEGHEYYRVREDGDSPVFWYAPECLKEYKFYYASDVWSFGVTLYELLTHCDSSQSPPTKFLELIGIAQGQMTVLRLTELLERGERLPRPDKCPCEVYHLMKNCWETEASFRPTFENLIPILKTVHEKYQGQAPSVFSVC
CAMK1D, sequence (Q8IU85 whole entry): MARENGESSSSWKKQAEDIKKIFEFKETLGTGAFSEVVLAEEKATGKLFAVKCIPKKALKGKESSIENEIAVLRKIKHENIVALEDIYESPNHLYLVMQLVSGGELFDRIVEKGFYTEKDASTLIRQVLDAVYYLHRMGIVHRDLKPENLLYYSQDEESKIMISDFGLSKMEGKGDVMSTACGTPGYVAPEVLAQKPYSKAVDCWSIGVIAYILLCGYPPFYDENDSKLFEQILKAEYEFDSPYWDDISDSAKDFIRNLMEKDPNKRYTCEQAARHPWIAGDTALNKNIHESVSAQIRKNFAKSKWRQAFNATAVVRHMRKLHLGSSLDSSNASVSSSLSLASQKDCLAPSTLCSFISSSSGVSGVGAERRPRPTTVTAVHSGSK

Structure (SMILES): NC(=O)c1cccc2cn(-c3ccc([C@@H]4CCCNC4)cc3)nc12 [Niraparib]
percent of control binding at 10 µM (TGFBR1; [2]): 98%
percent of control binding at 10 µM (MAP3K3; [2]): 100%
percent of control binding at 10 µM (TTK; [2]): 54%
percent of control binding at 10 µM (CAMK1D; [2]): 84%
percent of control binding at 10 µM [1, 2]: 96%
percent of control binding at 10 µM (SRMS; [2]): 100%

percent of control binding at 10 µM (TGFBR1; [3]): 93%
percent of control binding at 10 µM (MAP3K3; [3]): 88%
percent of control binding at 10 µM (TTK; [3]): 90%
percent of control binding at 10 µM (CAMK1D; [3]): 94%
percent of control binding at 10 µM [1, 3]: 84%
percent of control binding at 10 µM (SRMS; [3]): 92%
Structure (SMILES): O=C(c1cc(Cc2n[nH]c(=O)c3ccccc23)ccc1F)N1CCN(C(=O)C2CC2)CC1 [Olaparib]

percent of control binding at 10 µM (TGFBR1; [4]): 98%
percent of control binding at 10 µM (MAP3K3; [4]): 85%
percent of control binding at 10 µM (TTK; [4]): 20%
percent of control binding at 10 µM (CAMK1D; [4]): 86%
percent of control binding at 10 µM [1, 4]: 66%
percent of control binding at 10 µM (SRMS; [4]): 79%
Structure (SMILES): CNCc1ccc(-c2[nH]c3cc(F)cc4c3c2CCNC4=O)cc1 [Rucaparib]

percent of control binding at 10 µM (TGFBR1; [5]): 100%
percent of control binding at 10 µM (MAP3K3; [5]): 94%
percent of control binding at 10 µM (TTK; [5]): 99%
percent of control binding at 10 µM (CAMK1D; [5]): 91%
percent of control binding at 10 µM [1, 5]: 94%
percent of control binding at 10 µM (SRMS; [5]): 100%
Structure (SMILES): Cn1ncnc1[C@H]1c2n[nH]c(=O)c3cc(F)cc(c23)N[C@@H]1c1ccc(F)cc1 [Talazoparib]
